We go through 1 compound from US20110152094A1, “Herbicidal compositions comprising flufenacet” (Bayer CropScience AG, priority 2009, published 2011).

What all share (assay type): in vivo
One data set relates to LOLPE = Lolium perenne. In words: Greenhouse trial, post-emergence (PO) action against weeds (test method 2). The settings on record: PO application; g of AS/ha: (A) 120, (B) 1200, (A)+(B) 120 + 1200; about 3 weeks after application. On the procedure:
(§1) In the standard design of the test, seeds of various broad-leaved weed and weed grass biotypes (origins) were sown in a 8-13 cm diameter pot filled with natural soil of a standard field soil (loamy silt; non-sterile) and covered with a covering soil layer of about 1 cm. The pots were then cultivated in a greenhouse (12-16 h of light, temperature day 20-22° C., night 15-18° C.) until the time of application. The pots were treated on a laboratory track sprayer with spray liquors comprising the compositions according to the invention, mixtures of the prior art or components used individually. Application of the active compounds or active compound combinations formulated as WG, WP, EC or otherwise was carried out at the appropriate growth stages of the plants. The application rate for the spray application was 100-600 l of water/ha. After the treatment, the plants were returned to the greenhouses.
(§2) About 3 weeks after the application, the soil action or/and foliar action was assessed visually according to a scale of 0-100% in comparison to an untreated comparative group: 0%=no noticeable effect compared to the untreated comparative group; 100%=full effect compared to the untreated comparative group.
(§3) (notes: the term “seeds” also includes vegetative propagation forms such as, for example, rhizome pieces; abbreviations used: h light=hours of illumination, g of AS/ha=gram of active substance per hectare, l/ha=liter per hectare, S=sensitive, R=resistant) • 1. Pre-emergence action against weeds: seeds of various broad-leaved weed and weed grass biotypes (origins) were sown in a 8-13 cm diameter pot filled with natural soil of a standard field soil (loamy silt; non-sterile) and covered with a covering soil layer of about 1 cm. The pots were then cultivated in a greenhouse (12-16 h of light, temperature day 20-22° C., night 15-18° C.) until the time of application. The pots were treated at the BBCH stage 00-10 of the seeds/plants on a laboratory track sprayer with spray liquors comprising the compositions according to the invention, mixtures or components used individually, as WG, WP, EC or other formulations. The application rate for the spray application was 100-600 l of water/ha. After the treatment, the plants were returned to the greenhouses and, when required, treated with fertilizer and watered. • 2. Post-emergence action against weeds: seeds of various broad-leaved weed and weed grass biotypes (origins) were sown in a 8-13 cm diameter pot filled with natural soil of a standard field soil (loamy silt; non-sterile) and covered with a covering soil layer of about 1 cm. The pots were then cultivated in a greenhouse (12-16 h of light, temperature day 20-22° C., night 15-18° C.) until the time of application. The pots were treated at various BBCH stages between 11-25 of the seeds/plants, i.e. generally between two to three weeks after the start of the cultivation, on a laboratory track sprayer with spray liquors comprising the compositions according to the invention, mixtures or components used individually, as WG, WP, EC or other formulations. The application rate for the spray application was 100-600 l of water/ha. After the treatment, the plants were returned to the greenhouses and, when required, treated with fertilizer and watered. • 3. Selective pre-emergence action: seeds of various crop species (origins) were sown in a 8-13 cm diameter pot filled with natural soil of a standard field soil (loamy silt; non-sterile) and covered with a covering soil layer of about 1 cm. The pots were then cultivated in a greenhouse (12-16 h of light, temperature day 20-22° C., night 15-18° C.) until the time of application. The pots were treated at the BBCH stage 00-10 of the seeds/plants on a laboratory track sprayer with spray liquors comprising the compositions according to the invention, mixtures or components used individually, as WG, WP, EC or other formulations. The application rate for the spray application was 100-600 l of water/ha. […]

The test system of a further data set is STEME = Stellaria media. The description is as above. The conditions noted are these: PO application; g of AS/ha: (A) 120, (B) 1200, (A)+(B) 120 + 1200; about 3 weeks after application. On the procedure: as §1, §2, §3
Another data set relates to VIOAR = Viola arvensis. The data set is described as above. The settings on record: PO application; g of AS/ha: (A) 120, (B) 1200, (A)+(B) 120 + 1200; about 3 weeks after application. On the procedure: as §1, §2, §3
Data set [1] deals with HORVS = Hordeum vulgare, summer barley. As to the kind of experiment: Greenhouse trial, selective post-emergence (PO) action on crop plant (test method 4). The settings on record: PO application, g of AS/ha: (A) 120, (B) 1200, (A)+(B) 120 + 1200, about 3 weeks after application. On the procedure: as §1
(§4) About 3 weeks after the application, the soil action or/and foliar action was assessed visually according to a scale of 0-100% in comparison to an untreated comparative group: 0%=no noticeable effect compared to the untreated comparative group; 100%=full effect compared to the untreated comparative group. […]

Data set [2] has as its system HORVW = Hordeum vulgare, winter barley. In words: Greenhouse trial, selective pre-emergence (PE) action on crop plant (test method 3). The settings on record: PE application, g of AS/ha: (A) 90, (B) 1200, (A)+(B) 90 + 1200. The method, then:
as §1, §4

The subject of a further data set is AVEFA = Avena fatua. As to the kind of experiment: Greenhouse trial, PE application with different irrigation variations (test method 6). The conditions noted are these: g of AS/ha: (A) 120, (B) 1200, (A)+(B) 120 + 1200. On the procedure: as §1, §2, §3
The test system of data set [3] is MATCH = Matricaria chamomilla. The data set is described as above. The settings on record: g of AS/ha: (A) 120, (B) 1200, (A)+(B) 120 + 1200. The method, then:
as §1, §2, §3

For data set [4], the system named is TRZAW = Triticum aestivum, winter wheat. The data set is described as above. The conditions noted are these: g of AS/ha: (A) 120, (B) 1200, (A)+(B) 120 + 1200. The method, then:
as §1, §2, §3

Take `CCC(CC)Nc1c([N+](=O)[O-])cc(C)c(C)c1[N+](=O)[O-]` [(B) pendimethalin, N-(1-ethylpropyl)-3,4-dimethyl-2,6-dinitrobenzenamine]: the “activity LOLPE (visual assessment, scale 0-100% vs untreated)” value in the data set on LOLPE = Lolium perenne worked out at 0%. The “activity STEME (visual assessment, scale 0-100% vs untreated)” value in the data set with STEME = Stellaria media came out at 30%. Moreover, in the data set with VIOAR = Viola arvensis, the “activity VIOAR (visual assessment, scale 0-100% vs untreated)” value worked out at 30%. For the same compound, the “activity on crop plant HORVS (visual assessment, scale 0-100% vs untreated)” value in data set [1] is 10%. The “activity on crop plant HORVW (visual assessment, scale 0-100% vs untreated)” value in data set [2] is given as 50%. For the same compound, the “activity AVEFA (visual assessment, scale 0-100% vs untreated)” value in the data set with AVEFA = Avena fatua (irrigation from above) was found to be 5%; with AVEFA = Avena fatua (irrigation from below) it was 10%. The “activity MATCH (visual assessment, scale 0-100% vs untreated)” value in data set [3] (irrigation from above) turned out to be 30%; in data set [3] (irrigation from below) it was 18%. Further, the “activity on crop plant TRZAW (visual assessment, scale 0-100% vs untreated)” value in data set [4] (irrigation from above) is on record as 20%; in data set [4] (irrigation from below) it was 5%.
